Columns and labels:
[1] = target: T1, Human δ-opioid (DOP) (Homo sapiens, UniProt P41143); experiment: Radioligand binding, human δ-opioid (DOP) membranes, FlashPlate, [3H]-Bremazocine; conditions: compound at 10 μM; for A1 radioligand binding, percentage inhibition / A1: inhibition of radioligand binding: [3H]-Bremazocine; for A1: inhibition of radioligand binding: human DOP membranes
T1 construct: purchased Perkin Elmer Biosignal
In short: (§1)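 Cloned human receptor membranes were coated onto FlashPlate wells and incubated with radioligand and compound (added from a 0.5 mM DMSO daughter plate) for 1 hour at room temperature in the dark. Scintillation counting gave percent inhibition, with DMSO defining total and reference ligand defining non-specific binding.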

[2] = target: T2, Human κ-Opioid (KOP) (Homo sapiens, UniProt P41145); experiment: Radioligand binding, human κ-opioid (KOP) membranes, filtration, [3H]-Diprenorphine; conditions: compound at 10 μM; for A2 radioligand binding, percentage inhibition / A2: inhibition of radioligand binding: [3H]-Diprenorphine; for A2: inhibition of radioligand binding: human KOP membranes
T2 construct: purchased Perkin Elmer Biosignal
In short: (§2)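 Filtration binding on cloned human receptor membranes (1 Unit/well), [125I]-Substance P for NK1 and [3H]-Diprenorphine for KOP, 1 h at room temperature. Filters PEI-presoaked, washed with cold 50 mM Tris-HCl pH 7.4, counted by scintillation; percent inhibition calculated, reference ligand defining non-specific binding.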

[3] = target: T3, Human Melanocortin (MC3) (Homo sapiens, UniProt P41968); experiment: Radioligand binding, human melanocortin MC3 membranes, FlashPlate, [125I]-NDP-αMSH; conditions: compound at 10 μM; for A3 radioligand binding, percentage inhibition / A3: inhibition of radioligand binding: [125I]-NDP-αMSH; for A3: inhibition of radioligand binding: human MC3 membranes
T3 construct: purchased Perkin Elmer Biosignal
In short: as §1

[4] = target: T4, Human Melanocortin (MC4) (Homo sapiens, UniProt P32245); experiment: Radioligand binding, human melanocortin MC4 membranes, FlashPlate, [125I]-NDP-αMSH; conditions: compound at 10 μM; for A4 radioligand binding, percentage inhibition / A4: inhibition of radioligand binding: [125I]-NDP-αMSH; for A4: inhibition of radioligand binding: human MC4 membranes, 10 µM
T4 construct: purchased Perkin Elmer Biosignal
In short: as §1

[5] = target: T5, Human melanocortin (MC5) (Homo sapiens, UniProt P33032); experiment: Radioligand binding, human melanocortin MC5 membranes, FlashPlate, [125I]-NDP-αMSH; conditions: compound at 10 μM; for A5 radioligand binding, percentage inhibition / A5: inhibition of radioligand binding: [125I]-NDP-αMSH; for A5: inhibition of radioligand binding: human MC5 membranes
T5 construct: purchased Perkin Elmer Biosignal
In short: as §1

[6] = target: T6, Human melanin-concentrating hormone (MCH1) (Homo sapiens, UniProt Q99705); experiment: Radioligand binding, human melanin-concentrating hormone MCH1 membranes, FlashPlate, [125I]-S36057; conditions: compound at 10 μM; for A6 radioligand binding, percentage inhibition: [125I]-S36057; for A6: inhibition of radioligand binding: [125I]-S36057, human MCH1 membranes
T6 construct: purchased Perkin Elmer Biosignal
In short: as §1

[7] = target: T7, Human μ-opioid (MOP) (Homo sapiens, UniProt P35372); experiment: Radioligand binding, human μ-opioid (MOP) membranes, FlashPlate, [3H]-Naloxone; conditions: compound at 10 μM; for A7 radioligand binding, percentage inhibition / A7: inhibition of radioligand binding: [3H]-Naloxone; for A7: inhibition of radioligand binding: human MOP membranes
T7 construct: purchased Perkin Elmer Biosignal
In short: as §1

[8] = target: T8, Human neurokinin (NK1) (Homo sapiens, UniProt P25103); experiment: Radioligand binding, human neurokinin NK1 membranes, filtration, [125I]-Substance P; conditions: compound at 10 μM; for A8 radioligand binding, percentage inhibition / A8: inhibition of radioligand binding: [125I]-Substance P; for A8: inhibition of radioligand binding: human NK1 membranes
T8 construct: purchased Perkin Elmer Biosignal
In short: as §2

[9] = target: T9, Human neuropeptide Y (NPY-Y1) (Homo sapiens, UniProt P25929); experiment: Radioligand binding, human neuropeptide Y NPY-Y1 membranes, FlashPlate, [125I]-PYY; conditions: compound at 10 μM; for A9 radioligand binding, percentage inhibition / A9: inhibition of radioligand binding: [125I]-PYY
T9 construct: purchased Perkin Elmer Biosignal
T9 sequence (P25929 1-384): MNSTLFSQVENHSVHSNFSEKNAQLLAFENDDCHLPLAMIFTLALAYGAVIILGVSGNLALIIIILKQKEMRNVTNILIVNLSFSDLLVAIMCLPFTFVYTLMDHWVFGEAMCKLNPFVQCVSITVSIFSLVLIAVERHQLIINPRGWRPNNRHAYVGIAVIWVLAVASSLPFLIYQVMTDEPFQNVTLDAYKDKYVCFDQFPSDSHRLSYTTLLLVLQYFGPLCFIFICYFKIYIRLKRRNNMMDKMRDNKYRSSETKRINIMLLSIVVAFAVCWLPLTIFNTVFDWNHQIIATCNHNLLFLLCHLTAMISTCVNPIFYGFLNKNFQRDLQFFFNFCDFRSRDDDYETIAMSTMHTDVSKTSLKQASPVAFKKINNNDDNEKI
In short: as §1

[10] = target: T10, Human opioid (ORL1) (Homo sapiens, UniProt P41146); experiment: Radioligand binding, human opioid ORL1 membranes, FlashPlate, [125I]-Nociceptin; conditions: compound at 10 μM; for A10 radioligand binding, percentage inhibition / A10: inhibition of radioligand binding: [125I]-Nociceptin
T10 construct: purchased Perkin Elmer Biosignal
In short: as §1

[11] = target: T11, Mouse urotensin (mUR2) (Mus musculus, UniProt Q8VIH9); experiment: Radioligand binding, mouse urotensin mUR2 membranes, FlashPlate, [125I]-Urotensin II; conditions: compound at 10 μM; for A11 radioligand binding, percentage inhibition / A11: inhibition of radioligand binding: [125I]-Urotensin II; for A11: inhibition of radioligand binding: mouse mUR2 membranes
T11 construct: purchased Perkin Elmer Biosignal
T11 sequence (Q8VIH9 1-385): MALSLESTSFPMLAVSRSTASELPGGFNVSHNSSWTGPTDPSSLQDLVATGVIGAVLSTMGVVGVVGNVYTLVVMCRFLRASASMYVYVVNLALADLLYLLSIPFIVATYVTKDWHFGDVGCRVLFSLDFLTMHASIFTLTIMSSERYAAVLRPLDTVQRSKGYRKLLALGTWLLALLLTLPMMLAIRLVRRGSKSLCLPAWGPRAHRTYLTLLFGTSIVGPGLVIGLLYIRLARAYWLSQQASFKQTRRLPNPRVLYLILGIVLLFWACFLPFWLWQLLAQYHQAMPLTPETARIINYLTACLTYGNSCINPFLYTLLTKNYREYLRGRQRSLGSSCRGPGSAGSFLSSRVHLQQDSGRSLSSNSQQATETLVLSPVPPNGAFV
In short: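 Cloned mouse urotensin (mUR2) receptor membranes from Perkin Elmer Biosignal were immobilized in FlashPlate microplates using a proprietary coating. Each well got 19.5 μl buffer, then 0.5 μl of DMSO, reference ligand, or compound. Adding 5 μl of [125I]-Urotensin II, diluted to 5× final concentration in binding buffer, started binding. Plates were sealed with TopSeal-A and incubated 1 hour at room temperature in the dark. Wells were counted for 30 seconds each on a TopCount after a 60-second delay, and percentage inhibition was calculated.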

T8 sequence (P25103 whole entry): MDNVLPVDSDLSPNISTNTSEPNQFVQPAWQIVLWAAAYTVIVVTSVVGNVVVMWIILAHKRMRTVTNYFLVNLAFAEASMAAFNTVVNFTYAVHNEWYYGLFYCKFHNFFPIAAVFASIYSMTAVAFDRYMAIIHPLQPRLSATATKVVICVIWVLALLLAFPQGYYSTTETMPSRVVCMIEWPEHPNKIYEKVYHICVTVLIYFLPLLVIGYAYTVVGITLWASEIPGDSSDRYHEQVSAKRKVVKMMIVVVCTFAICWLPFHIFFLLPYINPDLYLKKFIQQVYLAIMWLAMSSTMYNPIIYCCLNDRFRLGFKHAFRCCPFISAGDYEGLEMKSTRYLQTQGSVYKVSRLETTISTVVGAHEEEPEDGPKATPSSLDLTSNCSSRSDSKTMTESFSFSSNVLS
T10 sequence (P41146 whole entry): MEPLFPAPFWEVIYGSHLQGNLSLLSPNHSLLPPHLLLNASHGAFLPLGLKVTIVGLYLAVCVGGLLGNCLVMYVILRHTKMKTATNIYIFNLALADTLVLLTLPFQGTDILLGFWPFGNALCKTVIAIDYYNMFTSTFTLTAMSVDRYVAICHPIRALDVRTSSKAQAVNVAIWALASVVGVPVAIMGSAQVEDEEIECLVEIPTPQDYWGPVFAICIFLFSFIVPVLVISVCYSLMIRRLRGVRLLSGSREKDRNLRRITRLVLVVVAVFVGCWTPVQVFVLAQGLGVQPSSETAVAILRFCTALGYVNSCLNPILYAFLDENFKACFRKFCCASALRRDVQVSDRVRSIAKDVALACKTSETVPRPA
T3 sequence (P41968 whole entry): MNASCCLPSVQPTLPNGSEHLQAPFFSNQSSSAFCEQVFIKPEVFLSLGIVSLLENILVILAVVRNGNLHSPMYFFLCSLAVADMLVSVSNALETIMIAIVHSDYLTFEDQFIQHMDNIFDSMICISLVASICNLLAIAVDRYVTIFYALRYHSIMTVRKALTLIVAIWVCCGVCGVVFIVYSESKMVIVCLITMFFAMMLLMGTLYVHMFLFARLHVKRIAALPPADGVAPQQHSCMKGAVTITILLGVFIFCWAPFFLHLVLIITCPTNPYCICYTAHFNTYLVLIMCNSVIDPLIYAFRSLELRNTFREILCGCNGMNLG
T7 sequence (P35372 whole entry): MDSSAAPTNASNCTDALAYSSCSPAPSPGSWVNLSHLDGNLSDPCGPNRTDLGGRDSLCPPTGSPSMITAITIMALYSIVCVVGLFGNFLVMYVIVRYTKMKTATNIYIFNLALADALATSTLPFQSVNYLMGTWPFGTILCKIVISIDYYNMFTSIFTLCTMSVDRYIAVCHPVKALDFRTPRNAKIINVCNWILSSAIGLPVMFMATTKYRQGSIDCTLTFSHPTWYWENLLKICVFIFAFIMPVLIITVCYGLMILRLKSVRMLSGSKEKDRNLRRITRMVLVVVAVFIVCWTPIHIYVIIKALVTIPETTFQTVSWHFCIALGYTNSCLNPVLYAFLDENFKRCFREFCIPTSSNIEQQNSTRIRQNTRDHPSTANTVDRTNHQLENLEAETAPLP
T5 sequence (P33032 whole entry): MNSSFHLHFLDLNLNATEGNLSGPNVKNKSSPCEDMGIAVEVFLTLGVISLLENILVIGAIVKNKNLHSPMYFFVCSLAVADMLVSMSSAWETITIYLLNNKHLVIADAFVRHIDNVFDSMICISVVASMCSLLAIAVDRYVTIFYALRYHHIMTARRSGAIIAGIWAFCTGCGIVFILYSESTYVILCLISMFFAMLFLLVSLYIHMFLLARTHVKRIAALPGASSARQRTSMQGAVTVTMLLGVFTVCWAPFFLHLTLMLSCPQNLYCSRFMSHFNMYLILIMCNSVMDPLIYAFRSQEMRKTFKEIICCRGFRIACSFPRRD
T6 sequence (Q99705 whole entry): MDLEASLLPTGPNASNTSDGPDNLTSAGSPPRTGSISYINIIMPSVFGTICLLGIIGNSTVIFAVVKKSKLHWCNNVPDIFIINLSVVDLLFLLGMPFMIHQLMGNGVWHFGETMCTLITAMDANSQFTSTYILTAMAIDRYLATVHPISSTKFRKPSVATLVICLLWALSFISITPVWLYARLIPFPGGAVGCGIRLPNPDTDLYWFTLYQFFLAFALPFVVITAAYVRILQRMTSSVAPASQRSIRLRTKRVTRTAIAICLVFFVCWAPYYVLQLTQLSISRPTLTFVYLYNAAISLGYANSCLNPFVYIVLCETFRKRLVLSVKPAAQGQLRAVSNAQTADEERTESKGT
T2 sequence (P41145 whole entry): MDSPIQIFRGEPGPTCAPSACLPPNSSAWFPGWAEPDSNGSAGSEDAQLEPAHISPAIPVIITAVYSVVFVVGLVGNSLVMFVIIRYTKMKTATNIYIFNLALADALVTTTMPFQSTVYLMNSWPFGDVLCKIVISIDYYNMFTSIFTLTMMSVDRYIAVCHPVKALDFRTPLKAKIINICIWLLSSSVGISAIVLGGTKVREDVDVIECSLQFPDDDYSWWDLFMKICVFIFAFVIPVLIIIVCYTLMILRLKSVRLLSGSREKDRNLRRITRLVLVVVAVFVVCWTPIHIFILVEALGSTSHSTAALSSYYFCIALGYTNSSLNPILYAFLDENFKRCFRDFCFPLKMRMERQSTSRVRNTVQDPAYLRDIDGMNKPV
T4 sequence (P32245 whole entry): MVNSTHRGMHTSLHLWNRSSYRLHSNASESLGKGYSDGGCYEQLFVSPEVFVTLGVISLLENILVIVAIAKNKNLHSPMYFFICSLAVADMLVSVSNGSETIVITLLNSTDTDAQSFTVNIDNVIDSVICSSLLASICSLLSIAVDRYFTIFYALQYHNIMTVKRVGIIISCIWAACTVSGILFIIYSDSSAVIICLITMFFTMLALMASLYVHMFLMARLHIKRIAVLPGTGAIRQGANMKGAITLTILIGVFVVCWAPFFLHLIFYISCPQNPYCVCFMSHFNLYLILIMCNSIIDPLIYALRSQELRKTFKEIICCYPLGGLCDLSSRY
T1 sequence (P41143 whole entry): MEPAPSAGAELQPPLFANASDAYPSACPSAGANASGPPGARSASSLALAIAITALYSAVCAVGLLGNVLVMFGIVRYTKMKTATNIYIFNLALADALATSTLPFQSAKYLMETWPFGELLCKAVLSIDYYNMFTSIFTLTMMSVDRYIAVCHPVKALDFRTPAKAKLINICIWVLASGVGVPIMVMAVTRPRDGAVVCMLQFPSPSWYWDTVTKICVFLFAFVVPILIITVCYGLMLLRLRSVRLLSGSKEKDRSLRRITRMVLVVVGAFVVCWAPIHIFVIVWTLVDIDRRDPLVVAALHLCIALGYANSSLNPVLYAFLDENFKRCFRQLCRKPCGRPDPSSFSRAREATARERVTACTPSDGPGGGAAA

For `COC[C@H]1OC(OCc2ccc(-c3ccccc3)cc2)[C@H](NC(=O)CCNC(=N)N)[C@@H](OCc2cccc(O)c2)[C@@H]1O` (stereo partly shown) [compound 130], the “A1 radioligand binding, percentage inhibition” value [1] was “− (“−” indicates less than 50% inhibition at 10 μM)”, the “A2 radioligand binding, percentage inhibition” value [2] was “− (“−” indicates less than 50% inhibition at 10 μM)” and the “A3 radioligand binding, percentage inhibition” value [3] was “− (“−” indicates less than 50% inhibition at 10 μM)”. For the same compound, the “A4 radioligand binding, percentage inhibition” value [4] was “− (“−” indicates less than 50% inhibition at 10 μM)”, the “A5 radioligand binding, percentage inhibition” value [5] was “− (“−” indicates less than 50% inhibition at 10 μM)” and the “A6 radioligand binding, percentage inhibition” value [6] was “− (“−” indicates less than 50% inhibition at 10 μM)”. For the same compound, the “A7 radioligand binding, percentage inhibition” value [7] was “+ (“+” indicates greater than 50% inhibition at 10 μM)”, the “A8 radioligand binding, percentage inhibition” value [8] was “− (“−” indicates less than 50% inhibition at 10 μM)” and the “A9 radioligand binding, percentage inhibition” value [9] was “− (“−” indicates less than 50% inhibition at 10 μM)”. For the same compound, the “A10 radioligand binding, percentage inhibition” value [10] was “− (“−” indicates less than 50% inhibition at 10 μM)” and the “A11 radioligand binding, percentage inhibition” value [11] was “− (“−” indicates less than 50% inhibition at 10 μM)”.

`NCCC(=O)N[C@H]1C(OCc2ccc3ccccc3c2)O[C@H](COCc2ccccc2)[C@@H](O)[C@@H]1OCc1ccc(Cl)cc1` (stereo partly shown) [compound 439] was tested, and the “A1: inhibition of radioligand binding” value [1] was “− (“−” indicates less than 50% inhibition at 10 μM)”, the “A2: inhibition of radioligand binding” value [2] was “− (“−” indicates less than 50% inhibition at 10 μM)” and the “A3: inhibition of radioligand binding” value [3] was “− (“−” indicates less than 50% inhibition at 10 μM)”. The “A4: inhibition of radioligand binding” value [4] was “+ (“+” indicates greater than 50% inhibition at 10 μM)”, the “A5: inhibition of radioligand binding” value ([5]; 10 µM) was “+ (“+” indicates greater than 50% inhibition at 10 μM)” and the “A6: inhibition of radioligand binding” value ([6]; 10 µM) was “− (“−” indicates less than 50% inhibition at 10 μM)”. The “A7: inhibition of radioligand binding” value [7] was “− (“−” indicates less than 50% inhibition at 10 μM)”, the “A8: inhibition of radioligand binding” value [8] was “+ (“+” indicates greater than 50% inhibition at 10 μM)” and the “A9: inhibition of radioligand binding” value ([9]; human NPY-Y1 membranes) was “− (“−” indicates less than 50% inhibition at 10 μM)”. The “A10: inhibition of radioligand binding” value ([10]; human ORL1 membranes) was “− (“−” indicates less than 50% inhibition at 10 μM)” and the “A11: inhibition of radioligand binding” value [11] was “− (“−” indicates less than 50% inhibition at 10 μM)”.

With `CO[C@H]1[C@H](O)[C@@H](COCc2ccc(-c3ccccc3)cc2)OC(OCc2ccccc2)[C@@H]1NC(=O)CCCNC(=N)N` (stereo partly shown) [compound 85] the “A1 radioligand binding inhibition” value ([1]; human δ-opioid (DOP) membranes) was “− (“−” indicates less than 50% inhibition at 10 μM)”, the “A2 radioligand binding inhibition” value ([2]; human κ-opioid (KOP) membranes) was “− (“−” indicates less than 50% inhibition at 10 μM)” and the “A3 radioligand binding inhibition” value ([3]; human melanocortin MC3 membranes) was “+ (“+” indicates greater than 50% inhibition at 10 μM)”. The “A4 radioligand binding inhibition” value ([4]; human melanocortin MC4 membranes) was “+ (“+” indicates greater than 50% inhibition at 10 μM)”, the “A5 radioligand binding inhibition” value ([5]; human melanocortin MC5 membranes) was “+ (“+” indicates greater than 50% inhibition at 10 μM)” and the “A6 radioligand binding inhibition” value ([6]; human MCH1 membranes) was “+ (“+” indicates greater than 50% inhibition at 10 μM)”. For the same compound, the “A7 radioligand binding inhibition” value ([7]; human μ-opioid (MOP) membranes) was “+ (“+” indicates greater than 50% inhibition at 10 μM)”, the “A8 radioligand binding inhibition” value ([8]; human neurokinin NK1 membranes) was “+ (“+” indicates greater than 50% inhibition at 10 μM)” and the “A9 radioligand binding inhibition” value ([9]; human NPY-Y1 membranes) was “− (“−” indicates less than 50% inhibition at 10 μM)”. For the same compound, the “A10 radioligand binding inhibition” value ([10]; human ORL1 membranes) was “+ (“+” indicates greater than 50% inhibition at 10 μM)” and the “A11 radioligand binding inhibition” value ([11]; mouse urotensin mUR2 membranes) was “− (“−” indicates less than 50% inhibition at 10 μM)”.

`CO[C@H]1[C@H](O)[C@@H](COCc2ccc(-c3ccccc3)cc2)OC(OCc2ccc(Cl)cc2)[C@@H]1NC(=O)CCCN` (stereo partly shown) [compound 95] was tested, and the “A1 radioligand binding, percentage inhibition” value [1] was “− (“−” indicates less than 50% inhibition at 10 μM)”, the “A2 radioligand binding, percentage inhibition” value [2] was “− (“−” indicates less than 50% inhibition at 10 μM)” and the “A3 radioligand binding, percentage inhibition” value [3] was “− (“−” indicates less than 50% inhibition at 10 μM)”. For the same compound, the “A4 radioligand binding, percentage inhibition” value [4] was “+ (“+” indicates greater than 50% inhibition at 10 μM)”, the “A5 radioligand binding, percentage inhibition” value [5] was “+ (“+” indicates greater than 50% inhibition at 10 μM)” and the “A6 radioligand binding, percentage inhibition” value [6] was “+ (“+” indicates greater than 50% inhibition at 10 μM)”. The “A7 radioligand binding, percentage inhibition” value [7] was “− (“−” indicates less than 50% inhibition at 10 μM)”, the “A8 radioligand binding, percentage inhibition” value [8] was “+ (“+” indicates greater than 50% inhibition at 10 μM)” and the “A9 radioligand binding, percentage inhibition” value [9] was “− (“−” indicates less than 50% inhibition at 10 μM)”. The “A10 radioligand binding, percentage inhibition” value [10] was “+ (“+” indicates greater than 50% inhibition at 10 μM)” and the “A11 radioligand binding, percentage inhibition” value [11] was “− (“−” indicates less than 50% inhibition at 10 μM)”.

For `NCCCC(=O)NC1C(OCc2ccc3ccccc3c2)OC(COCc2ccc(Cl)cc2)C(O)C1OCc1ccccc1` (single isomer, unassigned) [compound 470], the “A1: inhibition of radioligand binding” value [1] was “− (“−” indicates less than 50% inhibition at 10 μM)”, the “A2: inhibition of radioligand binding” value [2] was “− (“−” indicates less than 50% inhibition at 10 μM)” and the “A3: inhibition of radioligand binding” value ([3]; 10 µM) was “− (“−” indicates less than 50% inhibition at 10 μM)”. The “A4: inhibition of radioligand binding” value [4] was “− (“−” indicates less than 50% inhibition at 10 μM)”, the “A5: inhibition of radioligand binding” value [5] was “+ (“+” indicates greater than 50% inhibition at 10 μM)” and the “A6: inhibition of radioligand binding” value [6] was “− (“−” indicates less than 50% inhibition at 10 μM)”. For the same compound, the “A7: inhibition of radioligand binding” value [7] was “− (“−” indicates less than 50% inhibition at 10 μM)”, the “A8: inhibition of radioligand binding” value [8] was “+ (“+” indicates greater than 50% inhibition at 10 μM)” and the “A9: inhibition of radioligand binding” value ([9]; human NPY-Y1 membranes) was “− (“−” indicates less than 50% inhibition at 10 μM)”. For the same compound, the “A10: inhibition of radioligand binding” value ([10]; human ORL1 membranes, 10 µM) was “+ (“+” indicates greater than 50% inhibition at 10 μM)” and the “A11: inhibition of radioligand binding” value [11] was “− (“−” indicates less than 50% inhibition at 10 μM)”.

From US20080009418A1, “Selective Inhibitors” (Alchemia LTD., priority 2004, published 2008)
